In patent publication US20090076032A1, “Derivatives of 18Beta-Glycyrrhetinic Acid” (priority 2006, published 2009):
Read-outs that look alike come from different tables or passages of the source.

Key:
[1] = test system: Normal human keratinocyte (NHEKa) cells; test: NHEKa cell proliferation assay (ATP levels, CellTitre-Glo), example 11; format: cell-based
Protocol: Normal human keratinocyte (NHEKa) cells were cultured in the presence and absence of set concentrations of the five 18β-glycyrrhetinic acid derivatives, in multi-well assay plates (96), over a five-day period. The cells, seeded at a density of 5,000 or 2,500 cells per well, were cultured in keratinocyte growth medium (KGM) (Cascade Biologics), to which retinol and various concentrations of the 18β-glycyrrhetinic acid derivatives dissolved in KGM and DMSO were added. Control treatments included KGM only, KGM and retinol, and KGM and DMSO.
After the five-day period, cell proliferation was determined by assay of ATP levels (directly associated with cell density) using a commercially available kit (CellTitre-Glo, Promega). In the presence of suitable controls, reduced proliferation (cell growth measured by ATP generation) indicates an anti-proliferative effect of a given 18β-glycyrrhetinic acid derivative.

[2] = test system: normal human keratinocytes (NHEKa); format: cell-based; settings: 24 hours
Protocol: The cells used were normal human keratinocytes (NHEKa). All cells were cultured in T75 flasks according to the supplier's guidelines for maintenance of stocks. Frozen stocks of cells that had gone through two passages were seeded into T25 flasks at a seeding density of 2.5×10^3 cells per cm^2. The cells were then left to grow over 5 days with media changes being carried out every two days.
Cell culture treatment media were prepared for all the test compounds at four concentrations, namely 1 μM, 2.5 μM, 5 μM and 10 μM (final concentration). Control treatments on cells of normal media (no treatment) and DMSO were also carried out.
All treatment media were sterilised by filtration and added to the T25 flasks after removal of spent media. The cells were then incubated at 37° C. for 24 hours. The treatment media were removed from the T25 flasks and the cells washed with 5 ml of PBS before 1 ml of Trypsin/EDTA (TE) (Cascade, Mansfield, UK) solution was added to the flaks and left for approximately 8-10 minutes for the cells to lift off the growth surface. The trypsin was neutralised with 3 ml Trypsin Neutraliser (TN) (Cascade). The cells were then harvested and transferred to a separate 15 ml centrifuge tube for each treatment regime. The cells were spun at 180×g for 7 minutes and the medium was removed.
The cells were resuspended in 1 ml of ice cold PBS before being transferred to a microcentrifuge tube and spun at 200×g for 2 minutes. The PBS was removed and the cells were resuspended in 100 μl of binding buffer (10 mM Hepes, 140 mM NaCl, 2.5 mM CaCl2, pH 7.4) before the addition of 5 μl of a propidium iodide (PI) staining solution (BD Biosciences, Cowley, UK). The cells were incubated at 20° C. for 5 minutes before the addition of 300 μl of binding buffer followed by immediate analysis by flow cytometry. Cells taking up the PI stain were dead, cells not staining with PI were viable. The level of staining within the cells could be viewed by flow cytometry.
This type of analysis takes account of the natural variability in the growth and survival of different batches of cells. Data presented are from three repeats +SEM.

[3] = molecular target: T1, recombinant human retinol dehydrogenase enzyme 2 (hRoDH-E2) (Homo sapiens, UniProt Q9BPW9); test: Spectrometric hRoDH-E2 activity assay (retinal generation at 400 nm); format: biochemical; settings: E. coli RIL (+hRoDH-E2) SS, 15.625-250 μM, 2.5% DMSO, 125 μM retinol
T1 construct: host or cells: E. coli RIL
Protocol: A reaction mix was prepared, consisting of a buffered solution containing excess retinol (10 mM HEPES, 150 mM KCl, 2 mM EDTA, pH 8.0; 0.02% Tween 80; 125 μM retinol). Preliminary experiments concluded that sufficient cofactor was present in the crude enzyme source, therefore, this was not supplemented into the reaction buffer. The enzyme source was provided by the BioCatalysis Centre, University of Exeter, as a crude sonicated supernatant (SS) from harvested E. coli RIL cells transfected with the hRoDH-E2 expression vector. […] The reaction, initiated by the addition of enzyme (accounting for 5% total reaction volume), was monitored at 400 nm to measure the generation of retinal from retinol. The rate of retinal generation was determined as the change in milli-absorbance units per minute (mAbs/min).
Multi-well assay plates (96) were preloaded with DMSO (2.5% final reaction volume), containing inhibitor where required. […] The contents of each well were mixed by aspiration and the plate loaded into a multi-well plate reader set at 37° C. The generation of retinal was monitored at 400 nm over 30 minutes, during which time the reaction reached maximum velocity under uninhibited conditions after 600 seconds and began to decelerate after 1200 seconds in each case tested. […]

NHEKa cells = test: NHEKa cell viability/proliferation assay, amended plate design (ATP luminescence), example 12; settings: retinol 500 nM; for luminescence compared to the controls: 2.5 μM inhibitor
Protocol: To obtain a direct comparison of each inhibitor compared with carbenoxolone, the design of the assay was amended, so that each plate contained a range of different inhibitors at the same concentration compared to carbenoxolone. This removed inter-plate variation when comparing inhibitors used at the same concentration.
The medium (200 μl in each well) was replaced after 24 and 72 hours of growth with fresh pre-warmed medium containing retinol (500 nM final concentration) and the indicated inhibitor, consequently the length of treatment was 72 hours.

[4] = all four concentrations (1, 2.5, 5 and 10 μM)

T1 sequence (Q9BPW9 18-319): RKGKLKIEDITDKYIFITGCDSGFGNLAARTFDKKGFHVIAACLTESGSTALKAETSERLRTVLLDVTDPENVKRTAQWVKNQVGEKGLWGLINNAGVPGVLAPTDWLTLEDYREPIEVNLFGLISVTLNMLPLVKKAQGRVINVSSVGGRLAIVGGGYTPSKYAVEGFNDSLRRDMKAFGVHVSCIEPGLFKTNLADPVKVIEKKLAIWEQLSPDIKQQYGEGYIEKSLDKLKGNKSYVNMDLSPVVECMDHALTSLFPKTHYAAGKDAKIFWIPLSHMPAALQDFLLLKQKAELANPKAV

| Compound | viability of NHEKa cells (proportion of viable cells referenced to DMSO) [2, 4] | luminescence compared to the controls (NHEKa cells) | further results |
| --- | --- | --- | --- |
| COC(=O)[C@@]1(C)CC[C@]2(C)CCC3(C)C(=CC(=O)C4[C@@]5(C)CC[C@H](OC(=O)c6ccccc6C(=O)O)C(C)(C)C5CC[C@]43C)[C@@H]2C1 (stereo in doubt) [YP015, Phthalic acid mono-(11-methoxycarbonyl-4,4,6a,6b,8a,11,14b-heptamethyl-14-oxo-1,2,3,4,4a,5,6,6a,6b,7,8,8a,9, 10,11,12,12a, 14,14a, 14b-icosahydro-picen-3-yl) ester] | no decrease in viability | – | anti-proliferative properties compared with carbenoxolone sodium ([1]; at equal concentrations): more potent |
| CC1(C)[C@@H](OC(=O)CCC(=O)O)CC[C@]2(C)[C@H]3C(=O)C=C4[C@@H]5C[C@@](C)(C(=O)O)CC[C@]5(C)CC[C@@]4(C)[C@]3(C)CC[C@@H]12 [carbenoxolone, reference compound] | – | significantly less luminescence | viability of NHEKa cells (proportion of viable cells referenced to DMSO) ([2]; 1 μM and 2.5 μM): slight decrease in viability; inhibition of recombinant hRoDH-E2 activity (generation of retinal from retinol) [3]: reduce the generation of retinal from retinol; luminescence detected compared to the untreated control (NHEKa cells; 5.0 μM inhibitor): 41% |
| CC1(C)[C@@H](OC(=O)CCC(=O)O)CC[C@]2(C)[C@H]3C(=O)C=C4[C@@H]5C[C@@](C)(C(=O)O)CC[C@]5(C)CC[C@@]4(C)[C@]3(C)CC[C@@H]12 [carbenoxolone sodium, reference compound] | – | – | effect on NHEKa cell proliferation (ATP levels compared to the controls) ([1]; five-day culture, with retinol, various concentrations): suppresses NHEKa cell proliferation |
| trans-Cyclohexane-1,2-dicarboxylic acid mono-((3S,4aR,6aR,6bS,8aS,11S, 12aR,14aR,14bS)-11-carboxy-4,4,6a,6b,8a,11,14b-heptamethyl-14-oxo-1,2,3,4,4a,5,6,6a,6b, 7,8,8a,9,10,11,12,12a,14,14a, 14b-icosahydro-picen-3-yl) ester [YP023] | slight increase in viability | – | – |
| CC(=O)CC(=O)OC1CCC2(C)C(CCC3(C)C2C(=O)C=C2C4CC(C)(C(=O)O)CCC4(C)CCC23C)C1(C)C (stereo not shown) [YP016, 2,4a,6a,6b,9,9,12a-Heptamethyl-13-oxo-10-(3-oxo-butyryloxy)-1,2,3,4,4a,5,6,6a,6b, 7,8,8a,9,10,11,12, 12a,12b,13,14b-icosahydro-picene-2-carboxylic acid] | no decrease in viability | – | – |
| CC1(C)[C@@H](OC(=O)[C@@H]2CCCC[C@@H]2C(=O)O)CC[C@]2(C)[C@H]3C(=O)C=C4[C@@H]5C[C@@](C)(C(=O)O)CC[C@]5(C)CC[C@@]4(C)[C@]3(C)CC[C@@H]12 (mixture of isomers) [YP024, cis-Cyclohexane-1,2-dicarboxylic acid mono-((3S,4aR,6aR,6bS,8aS,11S, 12aR,14aR,14bS)-11-carboxy-4,4,6a,6b,8a,11,14b-heptamethyl-14-oxo-1,2,3,4,4a,5,6,6a,6b, 7,8,8a,9,10,11,12, 12a, 14, 14a, 14b-icosahydro-picen-3-yl) ester] | slight increase in viability | – | – |
| CC1(C)[C@@H](OC(=O)C2=C(C(=O)O)CCC2)CC[C@]2(C)[C@H]3C(=O)C=C4[C@@H]5C[C@@](C)(C(=O)O)CC[C@]5(C)CC[C@@]4(C)[C@]3(C)CC[C@@H]12 [YP026, Cyclopent-1-ene-1,2-dicarboxylic acid mono-((3S,4aR,6aR,6bS,8aS,11S,12aR, 14aR,14bS)-11-carboxy-4,4,6a,6b,8a,11,14b-heptamethyl-14-oxo-1,2,3,4,4a,5,6,6a,6b,7,8,8a,9,10,11,12,12a,14,14a, 14b-icosahydro-picen-3-yl) ester] | slight increase in viability | significantly less luminescence | – |
| CC(C)(CC(=O)O[C@H]1CC[C@]2(C)[C@H]3C(=O)C=C4[C@@H]5C[C@@](C)(C(=O)O)CC[C@]5(C)CC[C@@]4(C)[C@]3(C)CC[C@H]2C1(C)C)C(=O)O [YP022, 2,2-Dimethyl-succinic acid 4-((3S,4aR,6aR,6bS,8aS,11S,12aR,14aR,14bS)-11-carboxy-4,4,6a,6b,8a,11,14b-heptamethyl-14-oxo-1,2,3,4,4a,5,6,6a,6b,7,8,8a,9,10,11,12, 12a,14,14a, 14b-icosahydro-picen-3-yl) ester] | – | significantly less luminescence | – |
